Article PMC10099595, “Multimodal 4-arylchromene derivatives with microtubule-destabilizing, anti-angiogenic, and MYB-inhibitory activities” (Cancer Drug Resistance, 2023)
Where two headings read alike, the source gives them in different places. Values belong to the compound of their own block, whether it stands above or below them.

Key:
[1] = test system: tested cancer and hybrid cell lines; assay: MTT assay, average over all tested cancer and hybrid cell lines
Experimental: An 3-(4, 5-dimethylthiazol-2-yl)-2, 5-diphenyl tetrazolium bromid (MTT) assay was used for antiproliferative studies. Cancer cells (5 × 10^4 cells/mL, 100 μL/well) were placed in 96-well plates (10 × 10^4 cells/mL for HDFA and U87 cells), and the cells were incubated for 24 h at 5% CO2 and 95% humidity. Then, cells were treated with test compounds (at various concentrations) or solely with DMSO as a negative control for 72 h. Then, 12.5 μL of a 0.5% MTT solution in phosphate-buffered saline (PBS) was added to the cells, followed by incubation for 2 h at 37 °C. After centrifugation of the plates (300 × g, 5 min, 4 °C), the medium was discarded, and 25 μL of DMSO containing 10% SDS and 0.6% acetic acid was added, followed by incubation at 37 °C for at least 1 h. Formazan absorbance at λ = 570 nm was measured using a Tecan infinite F200 microplate reader and corrected for the background (λ = 630 nm). The 50% inhibitory concentration (IC50) values were calculated from dose-response curves (means ± SD, four independent experiments) compared to DMSO-treated control cells, which were set to 100%. GraphPad Prism 9 was used for curve-fitting.
The selectivity index (SI) was calculated as a measure of selectivity toward cancer cells compared to non-malignant cells.

518A2 melanoma cells = assay: MTT antiproliferative assay, 518A2; assay type: cell-based; conditions: Homo sapiens, 72 h
Excerpt: (§1) The following cell lines were used: 518A2 melanoma (Department of Radiotherapy, Medical University of Vienna, Austria)[15], HeLa cervix carcinoma, KBV1^Vbl (ACC-149 cervix carcinoma, MCF7 [ACC-115]) breast carcinoma, U-87 glioblastoma, HT-29 (ACC-299), HCT-116 (ACC-581) and HCT-116p53-/- colon carcinoma, EA.hy926 (ATCC® CRL-2922^TM) endothelial hybrid cells, and HDFa (ATCC® PCS-201-012^TM) adult human dermal fibroblasts. […] Only mycoplasma-free cultures were used.

[2] = test system: HCT-116 p53-/- colon carcinoma cells; assay: MTT antiproliferative assay, HCT-116 p53-/-; assay type: cell-based; conditions: Homo sapiens, 72 h
Excerpt: as §1

[3] = test system: KB-V1^Vbl cervix carcinoma cells; assay: MTT antiproliferative assay, KB-V1Vbl (with or without verapamil); assay type: cell-based, human; conditions: for IC50: Homo sapiens, KB-V1/Vbl, MTT, 72 h, without verapamil, read-out: IC50 KB-V1^Vbl; for P-gp substrate / dependence on P-gp: inferred from KB-V1^Vbl cells with and without verapamil; for fold lower IC50 values combined with verapamil: KB-V1^Vbl cells, verapamil 1 µM vs none
Excerpt: as §1

[4] = test system: MCF-7 breast carcinoma cells; assay: MTT antiproliferative assay, MCF-7; assay type: cell-based; conditions: Homo sapiens, MCF7, 72 h
Excerpt: as §1

[5] = test system: HCT-116 colon carcinoma cells; assay: MTT antiproliferative assay, HCT-116; assay type: cell-based; conditions: Homo sapiens, 72 h
Excerpt: as §1

[6] = test system: EA.hy926 endothelial hybrid cells; assay: MTT antiproliferative assay, EA.hy926; assay type: cell-based; conditions: Homo sapiens, EA.hy 926, 72 h
Excerpt: as §1

[7] = test system: HeLa cervix carcinoma cells; assay: MTT antiproliferative assay, HeLa; assay type: cell-based; conditions: Homo sapiens, 72 h
Excerpt: as §1

[8] = test system: HT-29 colon carcinoma cells; assay: MTT antiproliferative assay, HT-29; assay type: cell-based; conditions: Homo sapiens, 72 h
Excerpt: as §1

U-87 glioblastoma cells = assay: MTT antiproliferative assay, U87; assay type: cell-based; conditions: Homo sapiens, 72 h
Excerpt: as §1

zebrafish larvae = assay: Zebrafish angiogenesis assay (SIV area); assay type: in vivo; conditions: zebrafish larvae 24 hpf, 48 h treatment, 50-1000 nM
Experimental: Transgenic zebrafish (Tg(fli1:EGFP, casper mutant) were bred at 28 °C.[16] After fertilization, the eggs were transferred to E3-medium (5 mm NaCl, 0.17 mm KCl, 0.33 mm CaCl, 0.33 mm MgSO4, 0.01% methylene blue, pH 7.2), followed by incubation for 24 h. The chorion was manually removed, and the larvae were treated with test compounds or solvent in six-well plates (30 fish per concentration, 5 mL/well) for 48 h. The fluorescent vasculature was documented with a Leica MZ10F and Zeiss AxioCam MRrc. To quantify the angiogenesis, the sub-intestinal vein (SIV) area was measured using ImageJ and expressed as means ± SD with the control set to 100%. The significance of SIV reduction through substance treatment was assessed using one-way analysis of variance (ANOVA), *P < 0.05; **P < 0.01; ***P < 0.001; ****P < 0.0001, with Dunnett´s multiple comparison test (GraphPad Prism 9).

MYB = molecular target: T1, MYB (Homo sapiens, UniProt P10242, K503R/K527R); assay: Luciferase-dependent MYB activity assay (HEK-MYB-Luc reporter cells); assay type: cell-based; conditions: HEK-293 reporter cells, 16 h; read-out: IC50 inhibition of MYB activity
T1 construct: expressed in transfected cells; host or cells: HEK-293 (HEK-MYB-Luc reporter cell line)
T1 sequence (P10242 whole entry K503R/K527R): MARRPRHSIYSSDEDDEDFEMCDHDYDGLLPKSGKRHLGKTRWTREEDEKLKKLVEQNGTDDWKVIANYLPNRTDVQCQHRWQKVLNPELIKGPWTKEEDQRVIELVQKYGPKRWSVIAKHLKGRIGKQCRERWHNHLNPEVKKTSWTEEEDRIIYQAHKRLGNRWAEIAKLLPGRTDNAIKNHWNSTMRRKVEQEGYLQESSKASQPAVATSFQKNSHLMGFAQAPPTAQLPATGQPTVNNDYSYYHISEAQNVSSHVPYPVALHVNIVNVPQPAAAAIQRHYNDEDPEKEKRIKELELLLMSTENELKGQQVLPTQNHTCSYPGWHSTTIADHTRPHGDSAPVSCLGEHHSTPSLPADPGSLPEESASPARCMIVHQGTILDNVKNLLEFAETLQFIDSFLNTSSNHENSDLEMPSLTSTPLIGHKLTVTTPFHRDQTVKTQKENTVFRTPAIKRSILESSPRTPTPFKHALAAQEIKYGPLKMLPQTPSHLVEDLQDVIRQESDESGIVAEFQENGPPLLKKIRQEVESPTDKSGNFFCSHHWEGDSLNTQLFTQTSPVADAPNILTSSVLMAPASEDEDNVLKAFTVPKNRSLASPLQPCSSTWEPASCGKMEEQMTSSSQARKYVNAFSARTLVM
Experimental: Compounds were tested using the HEK-MYB-Luc reporter cell line, which allows a doxycycline-dependent induction of MYB expression and harbors an MYB-dependent luciferase reporter plasmid, as previously described. After 16 h of substance treatment (0.0001-3 µM), luciferase activities were analyzed as described.

[9] = test system: HDFa adult human dermal fibroblasts; assay: MTT cytotoxicity assay, non-malignant HDFa; assay type: cell-based; conditions: 72 h, non-malignant cells
Excerpt: as §1

[10] = Homo sapiens, read-out: Average IC50 value of the tested cancer and hybrid cell lines (Ø IC50), average of all cell lines of Table 2

SMILES: COc1ccc2c(c1)OC(N)=C(C#N)C2c1ccc(F)c(Cl)c1 (centres unmarked) [2J, 2-Amino-3-cyano-4-(3’-chloro-4’-fluorophenyl)-7-methoxy-4H-chromene]
- IC50 [1, 10]: 396 nM
- IC50 ([1]; read-out: Average IC50 value of the tested cancer and hybrid cell lines (Ø IC50), average of all cell lines of Table 2): > 500 nM
- IC50 (518A2 melanoma cells): 400 ± 10 nM
- IC50 [2]: 400 ± 40 nM
- IC50 [3]: 300 ± 20 nM
- P-gp substrate / dependence on P-gp [3]: substrate of P-gp
- IC50 [4]: 150 ± 20 nM
- IC50 [5]: 300 ± 30 nM
- IC50 [6]: 400 ± 20 nM
- IC50 [7]: 100 ± 6 nM
- IC50 [8]: 500 ± 50 nM
- IC50 (U-87 glioblastoma cells): 1200 ± 70 nM

SMILES: COc1ccc2c(c1)OC(N)=C(C#N)C2c1ccc(F)c(F)c1 (centres unmarked) [2I, 2-Amino-3-cyano-4-(3’, 4’-difluorophenyl)-7-methoxy-4H-chromene]
- IC50 (518A2 melanoma cells): 700 ± 5 nM
- IC50 [2]: 600 ± 6 nM
- IC50 [3]: 700 ± 30 nM
- fold lower IC50 values combined with verapamil [3]: 12 fold
- IC50 [4]: 700 ± 100 nM
- IC50 [5]: 800 ± 6 nM
- IC50 [6]: 700 ± 10 nM
- IC50 [7]: 600 ± 30 nM
- IC50 [8]: 800 ± 30 nM
- IC50 (U-87 glioblastoma cells): 3600 ± 500 nM

SMILES: COc1ccc2c(c1)OC(N)=C(C#N)C2c1cc(F)c(F)c(F)c1 (centres unmarked) [2P, 2-Amino-3-cyano-4-(3’, 4’, 5’-trifluorophenyl)-7-methoxy-4H-chromene]
- IC50 [1, 10]: 330 nM
- IC50 (518A2 melanoma cells): 300 ± 30 nM
- IC50 [2]: 300 ± 20 nM
- P-gp substrate / dependence on P-gp [3]: no dependence on P-gp
- IC50 [4]: 400 ± 50 nM
- IC50 [5]: 300 ± 20 nM
- IC50 [6]: 400 ± 40 nM
- IC50 [7]: 100 ± 20 nM
- IC50 [8]: 200 ± 5 nM
- IC50 (U-87 glioblastoma cells): 1100 ± 90 nM

SMILES: COc1ccc2c(c1)OC(N)=C(C#N)C2c1cccc(F)c1F (centres unmarked) [2M, 2-Amino-3-cyano-4-(2’, 3’-difluorophenyl)-7-methoxy-4H-chromene]
- IC50 [1, 10]: 330 nM
- IC50 (518A2 melanoma cells): 300 ± 10 nM
- IC50 [2]: 200 ± 8 nM
- IC50 [3]: 900 ± 90 nM
- P-gp substrate / dependence on P-gp [3]: P-gp substrates
- IC50 [4]: 200 ± 30 nM
- IC50 [5]: 500 ± 50 nM
- IC50 [6]: 400 ± 10 nM
- IC50 [7]: 90 ± 2 nM
- IC50 [8]: 200 ± 20 nM
- IC50 (U-87 glioblastoma cells): 400 ± 60 nM

SMILES: COc1ccc2c(c1)OC(N)=C(C#N)C2c1cc(F)ccc1F (centres unmarked) [2N, 2-Amino-3-cyano-4-(2’, 5’-difluorophenyl)-7-methoxy-4H-chromene]
- IC50 [1, 10]: > 500 nM
- IC50 (518A2 melanoma cells): 90 ± 60 nM
- IC50 [2]: 200 ± 10 nM
- IC50 [3]: 700 ± 70 nM
- P-gp substrate / dependence on P-gp [3]: P-gp substrates
- IC50 [4]: 300 ± 7 nM
- IC50 [5]: 500 ± 50 nM
- IC50 [6]: 4700 ± 900 nM
- IC50 [7]: 200 ± 20 nM
- IC50 [8]: 400 ± 30 nM
- IC50 (U-87 glioblastoma cells): 500 ± 100 nM

SMILES: COc1ccc2c(c1)OC(N)=C(C#N)C2c1ccccc1F (centres unmarked) [2G, 2-Amino-3-cyano-4-(2’-fluorophenyl)-7-methoxy-4H-chromene]
- IC50 [1, 10]: > 500 nM
- IC50 (518A2 melanoma cells): 700 ± 40 nM
- IC50 [2]: 300 ± 40 nM
- IC50 [3]: 700 ± 20 nM
- IC50 [4]: 500 ± 40 nM
- IC50 [5]: 200 ± 20 nM
- IC50 [6]: 900 ± 90 nM
- IC50 [7]: 400 ± 60 nM
- IC50 [8]: 200 ± 10 nM
- IC50 (U-87 glioblastoma cells): 3200 ± 100 nM

SMILES: COc1ccc2c(c1)OC(N)=C(C#N)C2c1cccc(S(F)(F)(F)(F)F)c1 (centres unmarked) [2Q, 2-Amino-3-cyano-4-(3’-pentafluorothiophenyl)-7-methoxy-4H-chromene]
- IC50 [1, 10]: > 500 nM
- IC50 (518A2 melanoma cells): 300 ± 10 nM
- IC50 [2]: 2900 ± 10 nM
- IC50 [3]: 1900 ± 100 nM
- IC50 [4]: 800 ± 30 nM
- IC50 [5]: 700 ± 40 nM
- IC50 [6]: 600 ± 20 nM
- IC50 [7]: 400 ± 4 nM
- IC50 [8]: 400 ± 30 nM
- IC50 (U-87 glioblastoma cells): 900 ± 60 nM

SMILES: COc1ccc2c(c1)OC(N)=C(C#N)C2c1ccc(F)cc1F (centres unmarked) [2L, 2-Amino-3-cyano-4-(2’, 4’-difluorophenyl)-7-methoxy-4H-chromene]
- IC50 [1, 10]: > 500 nM
- IC50 (518A2 melanoma cells): 500 ± 30 nM
- IC50 [2]: 1600 ± 160 nM
- IC50 [3]: 3800 ± 400 nM
- IC50 [4]: > 50000 nM
- IC50 [5]: 2500 ± 40 nM
- IC50 [6]: 200 ± 10 nM
- IC50 [7]: 1500 ± 70 nM
- IC50 [8]: 500 ± 50 nM
- IC50 (U-87 glioblastoma cells): 5100 ± 500 nM

SMILES: COc1ccc2c(c1)OC(N)=C(C#N)C2c1ccc(Cl)c(Cl)c1 (centres unmarked) [2K, 2-Amino-3-cyano-4-(3’, 4’-dichlorophenyl)-7-methoxy-4H-chromene]
- IC50 [1, 10]: > 500 nM
- IC50 (518A2 melanoma cells): 600 ± 7 nM
- IC50 [2]: 800 ± 20 nM
- IC50 [3]: 1300 ± 100 nM
- IC50 [4]: 1000 ± 50 nM
- IC50 [5]: 300 ± 10 nM
- IC50 [6]: 600 ± 80 nM
- IC50 [7]: 800 ± 70 nM
- IC50 [8]: 1900 ± 100 nM
- IC50 (U-87 glioblastoma cells): 8500 ± 300 nM

The next compounds have a lower IC50 (518A2 melanoma cells) than those just listed; values first:

- IC50 [1, 10]: 47 nM
- IC50 (518A2 melanoma cells): 20 ± 2 nM
- IC50 [2]: 6 ± 0.7 nM
- IC50 [3]: 60 ± 5 nM
- fold lower IC50 values combined with verapamil [3]: 20 fold
- IC50 (MYB): 1.56 ± 0.2 nM
- IC50 [4]: 20 ± 1 nM
- IC50 [5]: 70 ± 1 nM
- IC50 [7]: 10 ± 0.9 nM
- IC50 [8]: 200 ± 20 nM
- IC50 (U-87 glioblastoma cells): 25 ± 2 nM
SMILES: COc1ccc2c(c1)OC(N)=C(C#N)C2c1cc(I)c(OC)c(OC)c1 (centres unmarked) [2C, 2-Amino-3-cyano-4-(3’-iodo-4’, 5’-dimethoxyphenyl)-7-methoxy-4H-chromene]
- effect on SIV growth (angiogenesis) (zebrafish larvae): no SIV decrease
- IC50 [9]: > 50000 nM
- IC50 [6]: 60 ± 5 nM

- IC50 [1, 10]: 49 nM
- IC50 (518A2 melanoma cells): 6 ± 0.2 nM
- IC50 [2]: 30 ± 3 nM
- IC50 [3]: 10 ± 1 nM
- fold lower IC50 values combined with verapamil [3]: 14 fold
- IC50 (MYB): 1.28 ± 0.3 nM
- IC50 [4]: 100 ± 8 nM
- IC50 [5]: 100 ± 10 nM
- IC50 [7]: 2 ± 0.2 nM
- IC50 [8]: 200 ± 20 nM
- IC50 (U-87 glioblastoma cells): 80 ± 5 nM
SMILES: COc1ccc2c(c1)OC(N)=C(C#N)C2c1cc(Br)c(OC)c(OC)c1 (centres unmarked) [2B]
- effect on SIV growth (angiogenesis) (zebrafish larvae): no SIV decrease
- IC50 [9]: > 50000 nM
- IC50 [6]: 0.8 ± 0.09 nM

- IC50 [1, 10]: 203 nM
- IC50 (518A2 melanoma cells): 60 ± 6 nM
- IC50 [2]: 40 ± 3 nM
- IC50 [3]: 20 ± 2 nM
- IC50 [4]: 400 ± 60 nM
- IC50 [5]: 1400 ± 50 nM
- IC50 [7]: 40 ± 4 nM
- IC50 [8]: 70 ± 8 nM
- IC50 (U-87 glioblastoma cells): 100 ± 10 nM
SMILES: COc1ccc2c(c1)OC(N)=C(C#N)C2c1cc(F)cc(F)c1 (centres unmarked) [2O]
- P-gp substrate / dependence on P-gp [3]: no dependence on P-gp
- IC50 [6]: 40 ± 1 nM

- IC50 [1, 10]: 227 nM
- IC50 (518A2 melanoma cells): 30 ± 2 nM
- IC50 [2]: 200 ± 20 nM
- IC50 [3]: 30 ± 0.4 nM
- IC50 [4]: 10 ± 0.8 nM
- IC50 [5]: 300 ± 30 nM
- IC50 [7]: 300 ± 20 nM
- IC50 [8]: 200 ± 20 nM
- IC50 (U-87 glioblastoma cells): 900 ± 50 nM
SMILES: COc1ccc2c(c1)OC(N)=C(C#N)C2c1cccc([N+](=O)[O-])c1 (centres unmarked) [2R]
- IC50 [6]: 300 ± 9 nM
